Experimental data published in patent US12006296B1, “5-(4-methoxyphenyl)-1-hexyl-2-(4-nitrophenyl)-4-phenyl-1H-imidazoleas an antimicrobial compound” (KING FAISAL UNIVERSITY, priority 2023, dated 2024).

What was measured:
Assay type in all cases: cell-based
Candida albicans = assay: Antimicrobial testing by agar dilution, Candida albicans; conditions: after 10, 20, 40 and 60 min at all dilutions 1:100, 1:200, 1:400, 1:800, summary in words
Description: (§1) The antimicrobial properties of the 5-(4-methoxyphenyl)-1-hexyl-2-(4-nitrophenyl)-4-phenyl-1H-imidazole was studied by the method of agar dilution. Test solutions of each compound was prepared in concentration of 1% using dimethylformamide as a solvent then they are diluted in physiological solution to obtain the final experimental dilutions 1:100, 1:200, 1:400, 1:800. The effect of these substances are compared with furacillin in a controllable study. The testing microbes used were gram positive bacteria St. Aereus, gram negative bacteria E. Coli, Ps. aeruginosa and Candida albicans fungi were taken. The experiments used for this survey were meat-pentonlu agar (EPA) for cultivation of bacteria and Saburo environment for fungi. Each experiment used 1 ml of test solution on each plate 500 min. Add 2 drops of emulsified with microbes feel. All experimental samples were taken from the agar after 10, 20, 40, 60 minutes in the environment on the basis of Patrk planted. Bacteria were cultivated at a temperature of 37° C. for 1 day and the mushroom was kept in a thermostat for […] at a temperature of 28° C. in the. Then results were checked.

E. Coli = assay: Antimicrobial testing by agar dilution, E. Coli; conditions: Escherichia coli; after 10, 20, 40 and 60 min at all dilutions 1:100, 1:200, 1:400, 1:800; summary in words
Description: as §1

St. Aereus = assay: Antimicrobial testing by agar dilution, St. Aereus; conditions: Staphylococcus aureus; after 10, 20, 40 and 60 min at all dilutions 1:100, 1:200, 1:400, 1:800; summary in words
Description: as §1

Ps. aeruginosa = assay: Antimicrobial testing by agar dilution, Ps. aeruginosa; conditions: Pseudomonas aeruginosa; after 10, 20, 40 and 60 min at all dilutions 1:100, 1:200, 1:400, 1:800; summary in words
Description: as §1

Measured: inhibition activity

CCCCCCn1c(-c2ccc([N+](=O)[O-])cc2)nc(-c2ccccc2)c1-c1ccc(OC)cc1 [5-(4-methoxyphenyl)-1-hexyl-2-(4-nitrophenyl)-4-phenyl-1H-imidazole]
most higher inhibition activity: all assays above
